{
  "source": "patent US6762193B1",
  "about": "“Method of treating hair loss” (priority 2000, dated 2004)",
  "assay_type_in_all_cases": "in vivo, human",
  "key": {"[1]": {"test_system": "acne vulgaris/acne rosacea", "test": "Inception cohort investigational study of zafirlukast in acne vulgaris/acne rosacea patients", "text": "This study was designed to evaluate the effectiveness in treating acne vulgaris with the drug zafirlukast After having established a mechanism by which zafirlukast would be effective in the treatment of acne vulgaris, and subsequently treating a single case of acne conglobata successfully during the summer and fall of 1999, this study was purposely designed to evaluate the treatment of acne vulgaris with the drug zafirlukast\nObjective: To determine if the anti-leukotriene zafirlukast is effective in the treatment of acne vulgaris/acne rosacea.\nDesign: Inception cohort investigational study conducted from October 1999 to January 2000.\nSetting: Rural Family Practice clinic in Waldheim, La.\nParticipants: A total of 7 male and 8 female patients aged 12-45 years diagnosed with mild, moderate, or severe acne vulgaris including one case of acne conglobata and 2 cases of acne rosacea were given 20 mg. of zafirlukast (ACCOLATE® brand from AstraZeneca) twice daily from week 1 through week 4. The dose was increased to 30 mg. twice daily at week 4 and continued through week 8. At week 8 the dose of zafirlukast was decreased to 20 mg twice daily and continued until the termination of the study at 10 weeks.\nBetween the months of October and November 1999 both adolescent and adult patients were recruited consecutively at a family practice clinic in rural Louisiana to participate in an investigational study to determine the effectiveness of zafirlukast in the treatment of acne vulgarism Those patients who provided informed consent and who have reported a prior medical diagnosis of acne vulgaris were enlisted into the study. This cohort was composed of a total of seven male and eight female Caucasian patients, age twelve to forty five years, diagnosed with mild, moderate or severe acne vulgaris.\nPre-study recruitment assessment data was consistent with the following: one of fifteen patients was diagnosed with acne conglobata; two of fifteen patients were […] with acne rosacea, one of which had acne scars who had previously been treated with oral isotretinoin for nodular-cystic acne; eleven of fifteen patients with moderate to severe inflammatory/nodular-cystic acne; all patients had self medicated with topical comedolytic over-the-counter agents; three of fifteen patients had never been treated with prescription (topical or systemic) medications; twelve of fifteen patients were prescribed a range of three to five medical prescriptions (both topical and systemic) with varying degrees of success and failure; three of fifteen patients had previously taken oral isotretinoin; two of fifteen patients had been offered oral isotretinoin but refused that treatment.\nInclusion criteria for study enlistment encompassed any patient who was requesting medical treatment of a chief complaint of acne dermatitis, coincident with a clinical diagnosis of acne vulgaris confirmed by physical examination. These patients voluntarily agreed to be treated with zafirlukast knowing that alternative treatment (both topical and systemic) were available. At the initial visit all patients were instructed on the use of zafirlukast This was to be administered by mouth twice daily. The potential side effects, potential adverse reactions, and other risks were all explained. Patients all agreed to avoid any over-the-counter acne preparations and were to use any household soft-soap product to wash the facial skin twice daily. Zafirlukast was to be administered at the dose of 20 mg. twice daily from week one through week four and then to be increased to 30 mg. twice daily at week four and continued through week eight. At week eight the dose of zafirlukast was to be decreased to 20 mg. taken twice daily and continued until the completion of the study at ten weeks.\nMain Outcome Measures: Subjective and objective medical examination and qualitative photographic analysis were employed at each patients initial visit to establish baseline. […]"}, "androgenetic alopecia": {"test_system": "androgenetic alopecia", "test": "Investigative study of zafirlukast in androgenetic alopecia / hereditary balding (hair loss and regrowth)", "experimental": "(§1) During the summer of 2000 an investigative study was initiated to determine the efficacy of zafirlukast in the treatment of androgenetic alopecia A middle aged blond haired person whom was actively undergoing genetically influenced alopecia was recruited and voluntarily enlisted into the study under informed consent. […] Just two months earlier serum luteinizing hormone, total testosterone, androstenedione and dehydroepiandrosterone sulfate levels were determined to be normal. Having considered that dihydrotestosterone levels may have been suppressed to a low normal range, as pre treatment dihydrotestosterone serum determination had not been performed, the dose of zafirlukast was increased to 40 mg taken by mouth twice daily. Continuing this dose for a one month period of time, serum dihydrotestosterone levels were reanalized and determined to be 21 NG/DL (normal 25 to 75 NG/DL). […] The patient was then withdrawn, from zafirlukast therapy and there were no specific complications or side effects during a one month abstinence from zafirlukast and serum dihydrotestosterone levels were redetermined and found to be 15 NG/DL (normal 25 to 75 NG/DL). This patient was then given the option to continue treatment with zafirlukast at a dose of 40 mg taken by mouth twice daily for the treatment of androgenic alopecia and decided to do so as they had witnessed the continued regrowth of hair and remission of hair loss while taking zafirlukast. […] The results are as follows:\n(§2) In person two undergoing treatment with zafirlukast at 40 mg po bid for hereditary balding, their pretreatment dihydrotestosterone level was 5 NG/DL (normal 5 to 30 NG/DL); after 4 weeks of continuous treatment their dihydrotestosterone serum concentration was 4 NG/DL (normal 5 to 30 NG/DL) and at 6 weeks of continued treatment their serum dihydrotestosterone level was determined to be less than 3 NG/DL."}, "dihydrotestosterone": {"test_system": "dihydrotestosterone", "test": "Serum dihydrotestosterone level in patients treated with zafirlukast", "experimental": "as §1\nIn person one undergoing treatment for Grade IV cystic acne vulgaris with zafirlukast at 40 mg po bid (by mouth twice a day) for 4 weeks, preceded by 2 weeks of zafirlukast treatment at 30 mg bid, their serum dihydrotestosterone level was determined to be 16 NG/DL (normal was 25 to 75 NG/DL).\nas §2"}, "[2]": {"test": "Serum ancillary hormone and liver function studies during zafirlukast treatment", "experimental": "During the summer of 2000 an investigative study was initiated to determine the efficacy of zafirlukast in the treatment of androgenetic alopecia A middle aged blond haired person whom was actively undergoing genetically influenced alopecia was recruited and voluntarily enlisted into the study under informed consent. […] Just two months earlier serum luteinizing hormone, total testosterone, androstenedione and dehydroepiandrosterone sulfate levels were determined to be normal. Having considered that dihydrotestosterone levels may have been suppressed to a low normal range, as pre treatment dihydrotestosterone serum determination had not been performed, the dose of zafirlukast was increased to 40 mg taken by mouth twice daily. Continuing this dose for a one month period of time, serum dihydrotestosterone levels were reanalized and determined to be 21 NG/DL (normal 25 to 75 NG/DL). […] The patient was then withdrawn, from zafirlukast therapy and there were no specific complications or side effects during a one month abstinence from zafirlukast and serum dihydrotestosterone levels were redetermined and found to be 15 NG/DL (normal 25 to 75 NG/DL). This patient was then given the option to continue treatment with zafirlukast at a dose of 40 mg taken by mouth twice daily for the treatment of androgenic alopecia and decided to do so as they had witnessed the continued regrowth of hair and remission of hair loss while taking zafirlukast. […]\nIn this study a dose and time dependent effect has been identified with the treatment of both acne vulgaris and common baldness in genetically susceptible men and women without physical or psychological compromise, or forfeit of quality of life. […] Serum liver function studies monitored during this study remained in the normal range of value except in one patient with known Hepatitis C and abnormal pretreatment liver function studies; however, in all patients including the one patient with Hepatitis C, serum liver function studies improved with zafirlukast treatment possibly indicating a role in treating liver diseases in the future."}, "[3]": {"test_system": "Grade IV cystic acne vulgaris", "test": "Zafirlukast treatment of a patient with Grade IV cystic acne vulgaris", "details": "person one, 40 mg po bid"}},
  "data": [
    {"smiles": "COc1cc(C(=O)NS(=O)(=O)c2ccccc2C)ccc1Cc1cn(C)c2ccc(NC(=O)OC3CCCC3)cc12", "note": "[zafirlukast]", "values": [
      {"measurement": "added benefit of higher dose", "setting": "[1]; 30 mg twice daily from week 4 thru week 8 versus 20 mg twice daily", "result": "no added benefit"},
      {"measurement": "acne remission during the study", "setting": "[1]; 15 patients, 20-30 mg twice daily oral, 10 weeks", "result": "all participants attained periods of acne remission"},
      {"measurement": "time to subjective and objective clinical improvement", "setting": "[1]; after initiating zafirlukast therapy, routinely, observed as early as two weeks", "result": "3-4 weeks"},
      {"measurement": "time to acne reoccurrence in consistently non-compliant patients", "setting": "[1]; after more than 2-3 doses missed", "result": "2 to 3", "unit": "days"},
      {"measurement": "reduction of perilesional erythema", "setting": "[1]; by week eight", "result": "80-90%"},
      {"measurement": "reduction of perilesional erythema", "setting": "[1]; by week four", "result": "40-50%"},
      {"measurement": "resolution of perilesional erythema", "setting": "[1]; by week two", "result": "10-15%"},
      {"measurement": "reoccurrence of acne form lesions after discontinuation", "setting": "[1]; discontinuation of therapy over a 5-7 day period", "result": "equal to baseline levels"},
      {"measurement": "remission in the one patient compliant throughout the entire study", "setting": "[1]; fully compliant patient", "result": "complete remission"},
      {"measurement": "side effects", "setting": "[1]; one participant with acne rosacea, taken on an empty stomach, only participant with side effects, none at 10 mg twice daily", "result": "asthenia"},
      {"measurement": "side effects or adversities", "setting": "androgenetic alopecia; person one (acne) and person two (balding), 40 mg po bid", "result": "never witnessing any side effects or adversities"},
      {"measurement": "regrowth of frontal hair", "setting": "androgenetic alopecia; person two, 40 mg po bid", "result": "regrowth of frontal hair"},
      {"measurement": "regrowth of hair", "setting": "androgenetic alopecia; person, 20 mg twice daily, by the fourth month", "result": "regrowth of hair in the area of temporat and vertex balding was observed"},
      {"measurement": "occurrence of hair loss", "setting": "androgenetic alopecia; person, 20 mg twice daily, within the first 6 weeks", "result": "less occurrence of hair loss"},
      {"measurement": "side effects", "setting": "androgenetic alopecia; person, 20-40 mg twice daily", "result": "never any side effects observed"},
      {"measurement": "serum dihydrotestosterone level", "setting": "dihydrotestosterone; person one, 40 mg po bid for 4 weeks preceded by 2 weeks at 30 mg bid, normal 25 to 75", "result": 16, "unit": "ng/dL"},
      {"measurement": "dihydrotestosterone serum concentration", "setting": "dihydrotestosterone; person two, 40 mg po bid, after 4 weeks, pretreatment 5, normal 5 to 30", "result": 4, "unit": "ng/dL"},
      {"measurement": "serum dihydrotestosterone level", "setting": "dihydrotestosterone; person two, 40 mg po bid, at 6 weeks", "result": "less than 3 NG/DL"},
      {"measurement": "serum dihydrotestosterone level", "setting": "dihydrotestosterone; person, 20 mg twice daily, completion of fourth month, normal 25 to 75", "result": 32, "unit": "ng/dL"},
      {"measurement": "serum dihydrotestosterone level", "setting": "dihydrotestosterone; person, 40 mg twice daily for one month, normal 25 to 75", "result": 21, "unit": "ng/dL"},
      {"measurement": "serum dihydrotestosterone level", "setting": "dihydrotestosterone; person, after one month abstinence from zafirlukast, normal 25 to 75", "result": 15, "unit": "ng/dL"},
      {"measurement": "serum liver function studies", "setting": "[2]; all patients including one with Hepatitis C", "result": "improved"},
      {"measurement": "serum luteinizing hormone, total testosterone, androstenedione and dehydroepiandrosterone sulfate levels", "setting": "[2]; person, 20 mg twice daily, about second month", "result": "normal"},
      {"measurement": "serum 3-alpha androstanediol glucuronide, estrone, androstenedione, total testosterone, prostate specific antigen, and progesterone levels", "setting": "[2]; person, 40 mg twice daily for one month", "result": "within normal limits"},
      {"measurement": "acne lesion remission and clearing", "setting": "[3]", "result": "significant improvement"}
    ]}
  ]
}
